# Data as given in patent US20040092595A1, “Analgesic agent” (Seiwa Pharmaceuticals, Ltd., priority 2000, published 2004).
# Legend:
# [1] = test system: mice; experiment: Analgesic, anti-inflammatory activity test (formalin test); format: in vivo; settings: male ICR mice, 1.0% formalin (20 μl injected), sample 40 mg/kg intraperitoneal, 15 min before stimulation, n=10, average value±standard error; for 1st phase response (0 to 10 min), licking time: control 121.33 ± 5.32; for 2nd phase response (10 to 30 min), licking time: control 183.51 ± 20.10
# Protocol: An analgesic, anti-inflammatory activity test (the so-called “formalin test”) was carried out using samples 1 to 9 as test drugs.
# A 1.0% formalin solution (20 μl) was injected as a stimulant into the hypoderm of the planta depis in the hind leg of mice (five-week-old male ICR mice which, after purchase, had been subjected to quarantine and acclimation for one week). An act of licking the hind leg by the mice for alleviating the pain was then successively measured with a stopwatch 5 min by 5 min for 30 min. In this case, for each of the test drugs (samples 1 to 9), a suspension corresponding to a dose of 40 mg/kg was prepared using an aqueous solution of 0.5% polyoxyethylene sorbitan monooleate (Tween 80; a product of Atlas). The suspension (100 μl) for each sample was intraperitoneally administered to the mice 15 min before the stimulation. For a control group, the same volume of 0.5% Tween 80 was intraperitoneally administered to the mice.
# It is generally known that the formalin test as described above causes a biphasic response, that is, the following first-phase response and second-phase response.
# The first-phase response refers to a response indicated by pain in a 0 to 10 min period after the stimulation with formalin, that is, a response indicated by pain caused by direct stimulation of the sensory nerve at its end upon the injection of formalin. At the present time, only narcotic analgesics such as morphine are known to have inhibitory activity against this first-phase response. On the other hand, the second-phase response refers to a response indicated by pain in a 10 to 30 min period after the stimulation with formalin, that is, a response indicated by pain attributable to inflammation caused upon the injection of formalin. This response can be inhibited by conventional analgesics such as aspirin.
# The analgesic, anti-inflammatory activity was evaluated in two separate phases, a phase from 0 min to 10 min after the administration and a phase from 10 min to 30 min after the administration. For each of the phases, the total number of seconds for which the mouse licked the hind leg (licking time) was calculated, and this value was compared with the value for the control.
# [2] = test system: rats; experiment: Acute gastric ulcer test; format: in vivo
# Protocol: An acute gastric ulcer test was carried out using sample 2 and indometacin as test drugs. […] By contrast, for sample 2, the same test was carried out, except that, instead of indometacin, sample 2 was orally administered at a dose of 10 to 300 mg/kg.
Structure (SMILES),"1st phase response (0 to 10 min), licking time [1]","2nd phase response (10 to 30 min), licking time [1]","occurrence of a gastric ulcer ([2]; orally administered at a dose of 10 to 300 mg/kg, same test as for indometacin)","occurrence of a gastric ulcer ([2]; orally administered at a dose of not less than 50 mg/kg, seven hr after the administration)"
"O=C(O)C1C(c2ccc(O)cc2)C(C(=O)O)C1c1ccc(O)cc1 (stereo not drawn) [Sample 2, 4,4′-dihydroxy-α-truxillic acid]",102.34 ± 4.09 s,7.12 ± 3.29 s,an ulcer did not occur at all,–
"O=C(O)C1C(C(=O)O)C(c2ccc(Cl)cc2)C1c1ccc(Cl)cc1 (stereo not drawn) [Sample 6, 4,4′-dichloro-β-truxinic acid]",59.37 ± 6.04 s,34.44 ± 9.13 s,–,–
"COC(=O)C1C(c2ccc(O)cc2)C(C(=O)OC)C1c1ccc(O)cc1 (stereo not drawn) [Sample 8, dimethyl 4,4′-dihydroxy-α-truxillate]",89.65 ± 4.67 s,122.70 ± 7.16 s,–,–
"COc1ccc2c(c1)c(CC(=O)O)c(C)n2C(=O)c1ccc(Cl)cc1 [indometacin, reference compound]",–,–,–,the occurrence of a gastric ulcer was clearly learned
"O=C(O)C1C(C(=O)O)C(c2ccccc2)C1c1ccccc1 (stereo not drawn) [Sample 4, β-truxinic acid]",59.40 ± 7.19 s,74.75 ± 11.94 s,–,–
